Earlier results in patent US20100310668A1, “PHARMACEUTICAL COMPOSITIONS COMPRISING N-[2-(DIETHYLAMINO)ETHYL]-5-[(5-FLUORO-1,2-DIHYDRO-2-OXO-3H-INDOL-3-YLIDENE)METHYL]-2,4-DIMETHYL-1H-PYRROLE-3-CARBOXAMIDE” (ratiopharm GmbH, priority 2008, published 2010).

Conditions: solid (crystalline) form obtained by known manufacturing processes

In the case of `CCN(CC)CCNC(=O)c1c(C)[nH]c(/C=C2\C(=O)Nc3ccc(F)cc32)c1C` [compound I, N-[2-(diethylamino)ethyl]-5-[(5-fluoro-1,2-dihydro-2-oxo-3H-indol-3-ylidene)methyl]-2,4-dimethyl-1H-pyrrole-3-carboxamide], the solubility in water is given as “poor”.
